Assays:
NMDA-induced excitation = details: Evans et al., Brain Research, 1978, 148, 536-542; cited from earlier work
NMDA receptors = assay: Cortical slice studies: antagonism of responses to NMDA in rat cortical slice; assay type: cell-based; details: from righthand shift in the NMDA concentration-response curve, read-out: apparent equilibrium constant (Kb)
Protocol: The compounds useful in this invention potently and selectively block responses to NMDA in a brain slice from rat cortex, inhibit glycine binding to the strychnine-insensitive site present on the NMDA receptor, and block the potentiation of NMDA responses by glycine in cultured cortical neurones.
The effects of compounds of the invention on responses to NMDA were assessed using the rat cortical slice as described by Wong et al., Proc. Natl. Acad. Sci. USA, 1986, 83, 7104. The apparent equilibrium constant (Kb) was calculated from the righthand shift in the NMDA concentration-response curve produced by the compound under test.

Compound | antagonism of NMDA-induced excitation (in words) (NMDA-induced excitation) | Kb (NMDA receptors) [µM]
NC1CCN(O)C1=O (stereo not drawn) [HA-966, 3-amino-1-hydroxypyrrolidin-2-one] | able to antagonise selectively NMDA-induced excitation | –
C[C@H]1CN(O)C(=O)[C@H]1N (relative stereo) [Example 1, cis-3-Amino-1-hydroxy-4-methylpyrrolidin-2-one] | – | < 100
C[C@@H]1CN(O)C(=O)[C@@H]1N [Example 2, (3R,4R)-3-Amino-1-hydroxy-4-methylpyrrolidin-2-one] | – | < 100

From US4925867A, “Hydrocarbon substituted pyrrolidinones, intermediates therefor, and anti-convulsant use thereof” (Merck Sharp & Dohme Ltd., priority 1988, dated 1990)
